PubChem BioAssay AID1996
Converted amounts (≈) assume the structure as drawn.

conditions: buffer; pH 7.4; 200.0 µM

Compound | solubility kinetic [mg/mL]
CCCCNc1ccc(C(=O)OCCN(C)C)cc1.Cl | > 0.0451
S=C(NCCc1cccc(Cl)c1)NC1CCCCC1 | 0.0105 (≈ 35.4 µM)
Cc1ccc[n+](CC(=O)N2CCCCC2)c1C.[Br-] | > 0.047
COc1cccc(-c2noc(-c3ccc(Br)o3)n2)c1 | 0.0005 (≈ 1.56 µM)
Fc1ccccc1CNc1nc(-c2cccnc2)nc2ccccc12 | 0.009 (≈ 27.2 µM)
O=C(c1c(F)cccc1Cl)N1CCN(c2ccccn2)CC1 | > 0.048
Cc1cc(C(=O)CN2C(=O)C(=O)N(Cc3ccccc3)C2=O)c(C)n1Cc1ccccc1 | 0.004 (≈ 9.31 µM)
CN(C)c1cccc(N(C)C)c1CNC(=O)C(C)(C)C | 0.0397 (≈ 143 µM)
O=S(=O)(c1ccccc1)N(Cc1cccc(F)c1)c1ccccc1 | < 0.0007
CS(=O)(=O)N1CCN=C1SCc1ccc(F)cc1 | > 0.0433
CCN(c1cccc(C)c1)S(=O)(=O)c1ccc2c(c1)oc(=O)n2C | 0.0027 (≈ 7.79 µM)
Cc1cc(C)n2nc(SCc3ccc(C#N)cc3)nc2n1 | > 0.0443
Cc1csc(SCC(=O)Nc2ccc(F)cc2Cl)n1 | > 0.0475
O=C(O)/C=C/C(=O)NC1CC1 | > 0.0233
Cc1ccc(CC(C(=O)O)C(C)C(=O)Nc2ccc(F)cc2)cc1 (stereo not given) | > 0.0494
CCC(CO)NCc1sccc1C (stereo not given) | 0.0266 (≈ 133 µM)
CNc1nc(-c2c(C)n(C)c3ccc(OC)cc23)cs1 | 0.0239 (≈ 83.2 µM)
O=C(Cc1cccs1)NCc1cccc(C(F)(F)F)c1 | 0.0421 (≈ 141 µM)

Compound | solubility kinetic [mg/mL]
O=C(NCC(c1ccco1)N1CCCCC1)c1cccs1 (stereo not given) | > 0.0457
CC(C)CNC(=O)C(=O)Nc1cc2c3c(c1)CCC(=O)N3CCC2 | 0.005 (≈ 15.2 µM)
COc1ccc(N2C(=O)Cc3ccccc3C2=O)cc1 | 0.0393 (≈ 147 µM)
Cc1cc(C(=O)NCCc2ccc(S(N)(=O)=O)cc2)c(C)o1 | > 0.0484
N/C(CC(=O)Nc1ccc(F)c(Cl)c1)=N\OC(=O)c1cccs1 | 0.0024 (≈ 6.75 µM)
CC1CCCN(C(=O)C2CC(=O)N(c3ccc(Cl)cc3)C2)C1 (stereo not given) | > 0.0481
COCc1cc(C)nc(SCc2ccc(Br)cc2)c1C#N | < 0.0004
O=C1c2ccccc2C(=O)N1C1CCCCC1 | 0.0013 (≈ 5.67 µM)
CCc1nc2cccnc2n1-c1ccc(CC(=O)NC(C)CC)cc1 (stereo not given) | > 0.0505
CC(CCc1ccccc1)NC(C)C(O)c1ccc(O)cc1.Cl (stereo not given) | > 0.0504
Cl.O=S(=O)(NCCN1CCN(S(=O)(=O)c2ccccc2F)CC1)c1ccccc1F | > 0.0723
Cn1c(SCc2ccccc2C#N)nnc1-c1ccncc1 | > 0.0461
Cc1nc(SCC(=O)NC(=O)NC(C)C)nc(C)c1C | > 0.0445
O=[N+]([O-])c1ccccc1S(=O)(=O)N1CCN(Cc2ccccc2)CC1 | 0.0244 (≈ 67.5 µM)
CCP(=O)(c1cccc([N+](=O)[O-])c1)c1cccc([N+](=O)[O-])c1 | > 0.048
COc1ccc(CCNC(=O)CCNC(=O)c2ccco2)cc1OC | 0.0487 (≈ 141 µM)
Cc1cccc(NC2=C(Cl)C(=O)OC2OC(C)C)c1 (stereo not given) | > 0.0423

Second part, the molecule after the results:

solubility kinetic [mg/mL] | Compound
0.0137 | Cl.Oc1ccc(Nc2ncnc3ccccc23)cc1
0.0293 (≈ 105 µM) | Cc1cc(Cl)nc(SCC(=O)c2ccccc2)n1
0.0411 (≈ 144 µM) | N#CCCN(Cc1cccs1)C(=O)Nc1ccccc1
0.0186 (≈ 68.6 µM) | CC1Oc2ccccc2N(Cc2cccc(F)c2)C1=O (stereo not given)
> 0.0515 | CCOc1ccccc1N1C(=O)CC(Sc2nccc(C)n2)C1=O (stereo not given)
0.0432 (≈ 148 µM) | Cc1nc(-c2cccc(Br)c2)ccc1C(=O)O
< 0.0002 | C=CCn1c(NC(=O)c2ccc(C)cc2)nc2ccccc21
> 0.0327 | O=C(NCCCO)c1cc2ccccc2[nH]1
0.0325 (≈ 95.5 µM) | Cc1cc(Br)ccc1S(=O)(=O)NCc1ccccc1
> 0.0354 | Cc1ccccc1Cn1c(C)nc2ccccc21
0.0006 (≈ 1.92 µM) | CCc1ccccc1NC(=O)NC(C)c1ccc2c(c1)OCO2 (stereo not given)
> 0.0428 | CC(NC(=O)c1ccccc1)C(=O)N/N=C/c1ccco1 (stereo not given)
0.0201 (≈ 68.7 µM) | O=C(c1cc(-c2cccc(Cl)c2)on1)N1CCOCC1
0.0007 (≈ 2.27 µM) | CSc1ncc(Cl)c(C(=O)Nc2ccc(C)c(C)c2)n1
0.0007 (≈ 2.73 µM) | O=[N+]([O-])c1ccc2nonc2c1Nc1ccccc1
0.0109 (≈ 35.8 µM) | COc1ccc(NC(=O)NCc2ccccc2F)cc1OC
> 0.0485 | CCOC(=O)/C(N=Nc1ccc(C(=O)O)cc1[N+](=O)[O-])=C(\C)O
> 0.0356 | Nc1cccc(-c2cc3ccccc3oc2=O)c1
0.013 (≈ 35.8 µM) | CCN(CC)S(=O)(=O)c1ccc(NC(=S)Nc2ccccc2)cc1
0.0291 (≈ 145 µM) | C=CCNc1nc2ccccc2c(=O)[nH]1
0.004 (≈ 14 µM) | N#Cc1ccccc1NC(=O)COC(=O)c1cccs1
> 0.056 | Cn1nc(C(F)(F)F)c(-c2ccccc2)c1NC(=O)CSCC(=O)O
> 0.0435 | COc1ccccc1NC(=O)Cn1c([N+](=O)[O-])cnc1C
> 0.0392 | CC(=O)ONC(=Nc1ccccc1)c1nonc1N
> 0.0415 | Cc1nc2ccccc2cc1C(=O)NCc1ccccc1
